This note sets out measurements from PubChem BioAssay AID1996.

A word on the kinetic solubility: it is the concentration staying in solution when a stock, usually in DMSO, is diluted into the medium.

Values after ≈ are worked out from the molar mass of the structure shown.

The conditions of this data set: buffer; pH 7.4; 200.0 µM.
For `CC(NC(=O)c1ccco1)C(=O)OC(C)C(=O)NCc1ccccc1` (stereo unspecified), the solubility (kinetic) was found to be 46.3 µg/mL (≈ 134 µM). `CC(C)COc1ccc(C(=O)OCC(=O)NCc2cccs2)cc1`: the kinetic solubility came out at 1.1 µg/mL (≈ 3.17 µM). The figure for `CCOc1ccc(C(=S)N2CCCC2)c(OCC)c1` is over 41.9 µg/mL; for `Cc1ccn2cc(-c3cccc([N+](=O)[O-])c3)nc2c1` it is 5.7 µg/mL (≈ 22.5 µM). `O=C(Nc1ccc(F)cc1)NC1CCCc2ccccc21` (stereo unspecified) showed a solubility (kinetic) of 0.7 µg/mL (≈ 2.46 µM). Then `CN(Cc1ccccc1)C(=O)COC(=O)COc1ccc(C#N)cc1`, with over 50.8 µg/mL; and `S=C(Nc1ccccn1)Nc1ccccc1Cl`, with 2.1 µg/mL (≈ 7.96 µM). Then `CC(C)c1ccc(C(O)Cc2nc3ccccc3n2C)cc1` (stereo unspecified), with 1.8 µg/mL (≈ 6.11 µM); and `COC(=O)CCCNC(=O)c1ccc2[nH]c(C)c(C)c2c1`, with over 43.3 µg/mL; and `CCOc1ccccc1Nc1ccc2nonc2c1[N+](=O)[O-]`, with under 0.2 µg/mL. The figure for `Cc1cc(=O)[nH]c2sc(C(=O)N3c4ccccc4CC3C)c(N)c12` (stereo unspecified) is over 50.9 µg/mL; for `Cc1cc(NS(=O)(=O)c2ccc(NC(=O)c3ccc(F)cc3)cc2)nc(C)n1` it is over 60.1 µg/mL.

`Cn1cccc1C(C#N)(CC#N)c1cccc(F)c1C#N` (stereo unspecified) showed a solubility (kinetic) of 40.4 µg/mL (≈ 145 µM).

The molecule `Cc1ccc(S(=O)(=O)N2CCC(=O)CC2)cc1` had a solubility (kinetic) of over 38 µg/mL.

Regarding `O=C1CS(=O)(=O)c2ccccc2N1`, the solubility (kinetic) was over 29.6 µg/mL. `O=c1[nH]c2cc3ccccc3cc2nc1C(F)(F)F` registered a solubility (kinetic) of 2.9 µg/mL (≈ 11 µM). The molecule `CCOc1ccc(C(c2c(O)nc(SC)[nH]c2=O)c2c(O)nc(SC)[nH]c2=O)cc1` gave a kinetic solubility of over 67.3 µg/mL. Then `Cc1noc(C)c1COC(=O)/C=C/c1ccccc1Cl`, with 6.8 µg/mL (≈ 23.3 µM); and `CC(C)COc1ccc(C(=O)N2C(=O)c3ccc(N)cc3C2=O)cc1`, with 1.8 µg/mL (≈ 5.32 µM); and `N#Cc1ccc(OCC(=O)OCC(=O)c2ccc[nH]2)cc1`, with over 42.6 µg/mL. With `Br.C=CCn1c(=N)n(CC(=O)c2ccccc2)c2ccccc21`, the solubility (kinetic) was over 55.8 µg/mL. The figure for `COc1cccc(Cn2c(=O)oc3ccccc32)c1` is 25 µg/mL (≈ 97.9 µM). In the case of `O=C(Cn1cncn1)N/N=C/c1ccccc1Cl`, the solubility (kinetic) is over 39.6 µg/mL.

With `Cc1ccnc(NC(=O)c2cccc3ccccc23)c1`, the solubility (kinetic) was determined as 6.1 µg/mL (≈ 23.3 µM). The figure for `CN1CCOCCOCCOCCN(C)C1=S` is over 39.4 µg/mL; for `CCN(CC)CCN(C(=O)c1ccc2ccccc2c1)c1nc2ccc(OC)cc2s1.Cl` it is 14.2 µg/mL. The figure for `COc1ccc(Cl)cc1NC(=O)CN1c2ccccc2CC1C` (stereo unspecified) is 2.2 µg/mL (≈ 6.65 µM); for `CC1(C)CCc2cc(CN3CCN(c4ccccn4)CC3)ccc2O1` it is 47.5 µg/mL (≈ 141 µM). Then `Cc1cc(/C=C(\C#N)C(=O)N2CCCCC2)cc(C)c1O`, with over 42.7 µg/mL.

In turn, `COC(=O)Cn1cc(C(=O)c2ccccc2F)c2ccccc21` yielded a kinetic solubility of 32.4 µg/mL (≈ 104 µM). The figure for `CC(=O)c1sc(-c2ccc(F)cc2)cc1NS(=O)(=O)c1ccccc1` is 0.9 µg/mL (≈ 2.4 µM); for `Oc1c(Cl)cc(Cl)cc1C1Nc2ccccc2-n2cccc21` (stereo unspecified) it is under 0.4 µg/mL; for `Nc1cc(N2CCOCC2)c(Cl)cc1[N+](=O)[O-]` it is 31.4 µg/mL (≈ 122 µM).

Molecule `COCCNc1ncnc2c1nc1n2CCCC1` registered a solubility (kinetic) of over 37.1 µg/mL. Then `CCOC(=O)c1ccc(NC(=O)Nc2ncccc2C)cc1`, with 0.6 µg/mL (≈ 2 µM); and `CC1CCCC(NC(=O)CN2C(=O)NC(C)(c3cc(F)ccc3F)C2=O)C1C` (stereo unspecified), with over 59 µg/mL; and `O=C(CC1SC(N2CCOCC2)=NC1=O)Nc1ccc(F)cc1` (stereo unspecified), with over 50.6 µg/mL. Then `CC(=NCc1ccco1)c1c(O)n(-c2ccc(C)cc2)c(=O)[nH]c1=O`, with 12.5 µg/mL (≈ 36.8 µM); and `O=c1cc(Cl)c2ccccc2n1-c1ccccc1`, with over 38.4 µg/mL; and `CCOCCOC(=O)c1[nH]c2c(c1C)C(=O)CC(c1ccccc1)C2` (stereo unspecified), with 2.3 µg/mL (≈ 6.74 µM).

As for `O=C(c1ccc([N+](=O)[O-])o1)N1CCN(Cc2ccccc2)CC1`, the kinetic solubility was found to be 9.2 µg/mL (≈ 29.2 µM).
